The assay concerns the target DCN1 (DCUND1) protein PONY domain (Homo sapiens (Human), UniProt Q96GG9). Description: TR-FRET assay, DCN1 binding with FAM-labeled probe. The procedure:
A TR-FRET assay was performed to evaluate the ability of the compounds to bind the DCN-1 protein.
The TR-FRET assay was designed following the Scott et al. protocol (Scott et al., Nat Chem Biol. 2017 August; 13(8): 850-857. Doi:10.1038/nchembio.2386). The recombinant form of the DCN1 (DCUND1) protein PONY domain was produced using an E. coli expression system at Viva Biotech (China). The DCN1 protein was biotinylated (EZ sulfo-NHS-LC-biotin; Thermofisher) for labeling with streptavidin terbium (Tb) cryptate in the reaction. The probe was changed to a non-covalent DCN1 inhibitor labeled with carboxyfluorescein (FAM; Zhou et al., Nat Commun. 2017; 8: 1150. Doi: 10.1038/s41467-017-01243-7). Buffer conditions were modified to enhance protein stability by exchanging Tween20 for TritonX and increasing NaCl to 200 mM. The compounds were screened against 5 nM DCN1 and 20 nM FAM-probe or 0.31 nM DCN1 and 900 nM total probe (100 nM FAM-labeled plus 800 nM unlabeled). The TR-FRET ratio between Tb-DCN1 and the FAM-labeled probe was measured in a 384-well opti-plate (Perkin Elmer) using a plate reader (BMG) at 1, 5, and 24 hrs after treatment with compound (final DMSO concentration of 0.1%).
A general note: In TR-FRET formats the signal depends on donor and acceptor labels being close together.

[1] abbreviates: 24 hr after treatment with compound, read-out: TR FRET IC50 24 hr.
Where [2] appears, read: TR FRET IC50 1 hr (nM), 1 hr after treatment with compound.
The mark [3] stands for this setting: read-out: TR FRET IC50 1 hr, 1 hr after treatment with compound.

The structures appear in SMILES notation. Where two headings read alike, the source gives them in different places.

A word on the IC50: it is the concentration that inhibits the measured activity by half.

DCN1 (DCUND1) protein PONY domain, sequence (Q96GG9 60-248): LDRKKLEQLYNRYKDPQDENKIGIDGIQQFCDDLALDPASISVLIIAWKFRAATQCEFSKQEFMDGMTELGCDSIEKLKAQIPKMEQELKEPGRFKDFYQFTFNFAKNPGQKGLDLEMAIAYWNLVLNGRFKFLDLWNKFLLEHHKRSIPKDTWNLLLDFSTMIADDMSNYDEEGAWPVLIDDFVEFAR

For `CCN1C(=O)[C@@H](NC(=O)c2c(Cl)cccc2Cl)[C@@H](C2CC2)c2c(C(=O)N3[C@H](C#N)C[C@H]4C[C@H]43)nn(C3CCOCC3)c21` [Compound I-473], the IC50 under setting [1] was 1000 to 3000 nM and the IC50 under setting [2] lay in the range of 1000 to 3000 nM.

For `CCN1C(=O)[C@@H](NC(=O)COc2ccc3c(c2)CCC3)[C@@H](C2CC2)c2c(C(=O)N3[C@H](C#N)C[C@H]4C[C@H]43)nn(C3CCOCC3)c21` [Compound I-554], the IC50 under setting [1] was 1000 to 3000 nM and the IC50 under setting [2] lay in the range of 1000 to 3000 nM.

In the case of `CCN1C(=O)[C@@H](NC(=O)c2cccc(C(F)(F)F)c2)[C@@H](c2ccc(F)cc2)c2c(C(C)(C)NC#N)nn(-c3ccccc3)c21` (racemic) [Compound I-144, rac-N-((4R,5R)-3-(2-cyanamidopropan-2-yl)-7-ethyl-4-(4-fluorophenyl)-6-oxo-1-phenyl-4,5,6,7-tetrahydro-1H-pyrazolo[3,4-b]pyridin-5-yl)-3-(trifluoromethyl)benzamide], the IC50 under setting [1] was in the range of 200 to 1000 nM and the IC50 under setting [2] was 1000 to 3000 nM.

Take `CCN1C(=O)[C@@H](NC(=O)c2ccc3c(c2)OCCO3)[C@@H](C2CC2)c2c(C(=O)N3[C@H](C#N)C[C@H]4C[C@H]43)nn(C3CCOCC3)c21` [Compound I-695]: the IC50 lay in the range of 1000 to 3000 nM under setting [1] and 1000 to 3000 nM under setting [2].

Consider `CCN1C(=O)[C@@H](NC(=O)C2=NN(c3ccccc3)C(=O)C2)[C@@H](C2CC2)c2c(C(=O)N3[C@H](C#N)C[C@H]4C[C@H]43)nn(C3CCOCC3)c21` [Compound I-591], for which the IC50 runs as follows: under setting [1], 1000 to 3000 nM; under setting [2], 1000 to 3000 nM.

For `CCN1C(=O)[C@@H](NC(=O)c2ccn(C(C)(C)C)n2)[C@@H](C2CC2)c2c(C(=O)N3[C@H](C#N)C[C@H]4C[C@H]43)nn(C3CCOCC3)c21` [Compound I-688], the IC50 reads like this: under setting [1], no more than 200 nM; under setting [2], 200 to 1000 nM.

On to `CCN1C(=O)[C@@H](NC(=O)c2cccc(C(F)(F)F)c2)[C@@H](c2ccc(F)cc2)c2c(CN(C)C(=O)C(F)Cl)nn(-c3ccccc3)c21` (mixture of isomers) [Compound I-145], for which the IC50 lay within 200 to 1000 nM under setting [1] and 200 to 1000 nM under setting [2].

On to `CCN1C(=O)[C@@H](NC(=O)CC2CCCc3ccccc32)[C@@H](C2CC2)c2c(C(=O)N3[C@H](C#N)C[C@H]4C[C@H]43)nn(C3CCOCC3)c21` (stereo partly shown) [Compound I-663], for which the IC50 is 1000 to 3000 nM under setting [1] and 1000 to 3000 nM under setting [2].

With `CCN1C(=O)[C@@H](NC(=O)c2cccc(C(F)(F)F)c2)[C@@H](c2ccc(F)cc2)c2c(CNC(=O)C34CC3C4)nn(-c3ccccc3)c21` (stereo partly drawn) [Compound I-114, N-[[(4S, 5S)-7-ethyl-4-(4-fluorophenyl)-6-oxo-1-phenyl-5-[[3-(trifluoromethyl)benzoyl]amino]-4,5-dihydropyrazolo[3,4-b]pyridine-3-yl]methyl]bicyclo[1.1.0]butane-1-carboxamide], the IC50 by setting is: under setting [1], 200 to 1000 nM; under setting [2], 200 to 1000 nM.

`CCN1C(=O)[C@@H](NC(=O)c2ccc3c(c2)CCO3)[C@@H](C2CC2)c2c(C(=O)N3[C@H](C#N)C[C@H]4C[C@H]43)nn(C3CCOCC3)c21` [Compound I-547]: the IC50 by setting is: under setting [1], no more than 200 nM; under setting [2], 200 to 1000 nM.

As for `CCN1C(=O)[C@@H](NC(=O)c2cccc(C(F)(F)F)c2)[C@@H](c2ccc(F)cc2)c2c(C(=O)N[C@H](C)C#N)nn(-c3ccccc3)c21` (mixture of isomers) [Compound I-157], the IC50 runs as follows: under setting [1], 200 to 1000 nM; under setting [2], 1000 to 3000 nM.

Consider `CCN1C(=O)[C@@H](NC(=O)c2cccc(C(F)(F)F)c2)[C@@H](c2ccc(F)cc2)c2c(C(=O)N3CCC[C@@H]3C#N)nn(-c3ccccc3)c21` (mixture of isomers) [Compound I-94], for which the IC50 is, setting by setting: under setting [1], 200 to 1000 nM; under setting [2], 200 to 1000 nM.

In the case of `C[C@@H](NC#N)c1nn(-c2ccccc2)c2c1[C@H](c1ccc(F)cc1)[C@H](NC(=O)c1cccc(C(F)(F)F)c1)C(=O)N2CCOP(=O)(O)O` [Compound I-162], the IC50 is no more than 200 nM under setting [1] and no more than 200 nM under setting [3].

For `CCN1C(=O)[C@@H](NC(=O)c2cc(S(C)(=O)=O)ccc2F)[C@@H](C2CC2)c2c(C(=O)N3[C@H](C#N)C[C@H]4C[C@H]43)nn(C3CCOCC3)c21` [Compound I-475], the IC50 under setting [1] is 1000 to 3000 nM and the IC50 under setting [2] fell in the range of 1000 to 3000 nM.

Take `CCN1C(=O)[C@@H](NC(=O)c2cccc(C(F)(F)F)c2)[C@@H](c2ccc(F)cc2)c2c(C(C)(C)N(C)C#N)nn(-c3ccccc3)c21` (racemic) [Compound I-42, rac-N-((4R,5R)-7-ethyl-4-(4-fluorophenyl)-3-(2-(N-methylcyanamido)propan-2-yl)-6-oxo-1-phenyl-4,5,6,7-tetrahydro-1H-pyrazolo[3,4-b]pyridin-5-yl)-3-(trifluoromethyl)benzamide]: the IC50 is, setting by setting: under setting [1], 1000 to 3000 nM; under setting [2], 1000 to 3000 nM.

In the case of `CCN1C(=O)[C@@H](NC(=O)c2cccc(C(F)(F)F)c2)[C@@H](c2ccc(F)cc2)c2c(CNC(=O)/C=C/C(N)=O)nn(-c3ccccc3)c21` (racemic) [Compound I-64, rac-N1-(((4R,5R)-7-ethyl-4-(4-fluorophenyl)-6-oxo-1-phenyl-5-(3-(trifluoromethyl)benzamido)-4,5,6,7-tetrahydro-1H-pyrazolo[3,4-b]pyridine-3-yl)methyl)fumaramide], the IC50 lay within 200 to 1000 nM under setting [1] and 1000 to 3000 nM under setting [2].

Regarding `CCN1C(=O)[C@@H](NC(=O)C2CCOc3ccccc32)[C@@H](C2CC2)c2c(C(=O)N3[C@H](C#N)C[C@H]4C[C@H]43)nn(C3CCOCC3)c21` (stereo partly shown) [Compound I-598], the IC50 lay within 1000 to 3000 nM under setting [1] and 1000 to 3000 nM under setting [2].

As for `CCN1C(=O)[C@@H](NC(=O)c2cccc(C(F)(F)F)c2)[C@@H](c2ccc(F)cc2)c2c(CC/C=C\C(=O)O)nn(-c3ccccc3)c21` (racemic) [Compound I-126, rac-(Z)-5-((4R,5R)-7-ethyl-4-(4-fluorophenyl)-6-oxo-1-phenyl-5-(3-(trifluoromethyl)benzamido)-4,5,6,7-tetrahydro-1H-pyrazolo[3,4-b]pyridin-3-yl)pent-2-enoic acid], the IC50 runs as follows: under setting [1], 200 to 1000 nM; under setting [2], 200 to 1000 nM.

For the compound `CCN1C(=O)[C@@H](NC(=O)c2cccc(C(F)(F)F)c2)[C@@H](c2ccc(F)cc2)c2c(CNC(=O)/C(C)=C/C(=O)OC)nn(-c3ccccc3)c21` (racemic) [Compound I-155], the IC50 under setting [1] was 200 to 1000 nM and the concentration for half-maximal inhibition (IC50) under setting [2] lay within 1000 to 3000 nM.

As for `CCN1C(=O)[C@@H](NC(=O)c2cccc(C(F)(F)F)c2)[C@@H](c2ccc(F)cc2)c2c(CC/C=C\C(=O)N(C)C)nn(-c3ccccc3)c21` (racemic) [Compound I-69], the IC50 is, setting by setting: under setting [1], 200 to 1000 nM; under setting [2], 200 to 1000 nM.

Take `CCN1C(=O)[C@@H](NC(=O)C2CC(C)C2)[C@@H](C2CC2)c2c(C(=O)N3[C@H](C#N)C[C@H]4C[C@H]43)nn(C3CCOCC3)c21` (stereo partly shown) [Compound I-655]: the IC50 was 1000 to 3000 nM under setting [1] and 1000 to 3000 nM under setting [2].

On to `CCOc1ccc(C)c(C(=O)N[C@@H]2C(=O)N(CC)c3c(c(C(=O)N4[C@H](C#N)C[C@H]5C[C@H]54)nn3C3CCOCC3)[C@@H]2C2CC2)c1` [Compound I-620], for which the IC50 runs as follows: under setting [1], no more than 200 nM; under setting [3], no more than 200 nM.

For the compound `CCN1C(=O)[C@@H](NC(=O)c2cccc(C(F)(F)F)c2)[C@@H](c2ccc(F)cc2)c2c(CN(C#N)CCF)nn(-c3ccccc3)c21` (racemic) [Compound I-61], the IC50 reads like this: under setting [1], 200 to 1000 nM; under setting [2], 200 to 1000 nM.

For the compound `CCN1C(=O)[C@@H](NC(=O)c2cnn(CC(F)(F)F)c2)[C@@H](C2CC2)c2c(C(=O)N3[C@H](C#N)C[C@H]4C[C@H]43)nn(C3CCOCC3)c21` [Compound I-507], the IC50 under setting [1] was 1000 to 3000 nM and the IC50 under setting [2] fell in the range of 1000 to 3000 nM.

Consider `CCN1C(=O)[C@@H](NC(=O)CC#N)[C@@H](C2CC2)c2c(C(=O)N3[C@H](C#N)C[C@H]4C[C@H]43)nn(C3CCOCC3)c21` [Compound I-555], for which the IC50 is 1000 to 3000 nM under setting [1] and 1000 to 3000 nM under setting [2].

Regarding `CCN1C(=O)[C@@H](NC(=O)c2cccc(C(F)(F)F)c2)[C@H](c2ccc(F)cc2)c2c(CN(C)C#N)nn(-c3ccccc3)c21` (single isomer, unassigned) [Compound I-133], the IC50 by setting is: under setting [1], 200 to 1000 nM; under setting [2], 200 to 1000 nM.

On to `CCN1C(=O)[C@@H](NC(=O)CC(C)(C)C)[C@@H](C2CC2)c2c(C(=O)N3[C@H](C#N)C[C@H]4C[C@H]43)nn(C3CCOCC3)c21` [Compound I-424], for which the IC50 runs as follows: under setting [1], 1000 to 3000 nM; under setting [2], 1000 to 3000 nM.

Consider `CCN1C(=O)[C@@H](NC(=O)c2cccc(C(F)(F)F)c2)[C@@H](c2ccc(F)cc2)c2c(C/C=C/C(=O)NCCCN(C)C)nn(-c3ccccc3)c21` (racemic) [Compound I-99], for which the IC50 was 200 to 1000 nM under setting [1] and 200 to 1000 nM under setting [2].

Regarding `CCN1C(=O)[C@@H](NC(=O)c2ccc(C)c(C(F)(F)F)c2)[C@@H](C2CC2)c2c(C(=O)N3[C@H](C#N)C[C@H]4C[C@H]43)nn(C3CCOCC3)c21` [Compound I-627], the IC50 runs as follows: under setting [1], no more than 200 nM; under setting [3], no more than 200 nM.

These data come from patent US20250163057A1, “DCN-1 MODULATING COMPOUNDS AND METHODS OF USE THEREOF” (Cellarity, Inc., priority 2023, published 2025).
